Data from patent publication US10105382B2, “Therapy regimen and methods to sensitize cancer cells treated with epigenetic therapy to PARP inhibitors in ovarian cancer” (THE JOHNS HOPKINS UNIVERSITY, priority 2014, dated 2018).

Tests used:
normal bone marrow (NBM) = experiment: Colony survival of normal bone marrow; format: cell-based; conditions: drug concentrations used; BMN 1 nM in FIG. 18
Method: Colony forming assay: At Day 7 of experiment, equal numbers of viable cells (KASUMI-1 cells 10000 cells/dish; MV411 3000 cells/dish; MOLM14 1000 cells/dish; Patients #16, 2000 cells/dish, #9, #13 and #15, 5000 cells/dish, #29, 10000 cells/dish, #30, 20000 cells/dish and #34, 40000 cells/dish) were treated as described earlier and plated in triplicate in 33 mm dish on MethoCult H4435 Enriched (StemCell Technologies, Vancouver, British Columbia, Canada) for MNC, or Methylcellulose Stock Solution (R&D Systems, Minneapolis, Minn.) supplemented with culture media for cell lines according to the instructions of the manufacturer. Ten to nineteen days later, colonies were stained with 2-(4-iodophenyl)-3-(4-nitrophenyl)-5-phenlytetrazolium chloride (1 mg/mL) overnight at 37° C. and colonies containing more than 40 cells were quantified using colony counter and Protocol3 software (Synbiosis, Frederick, Md.).

MOLM14 = experiment: cells; conditions: Homo sapiens, MOLM-14, 72 h
Method: (§6) Four hours prior to evaluation, 20 μL of MTS labelling reagent ([3-(4, 5-dimethylthiazol-2-yl)-5-(3-carboxymethoxyphenyl)-2-(4-sulfophenyl)-2H-tetrazolium, MTS supplemented with phenazine methosulfate, PMS, Promega, Madison, Wis.) was added to each well. The results were quantified using a VersaMax Elisa Microplate Reader at a wavelength of 490 nm and SoftMax®Pro software (Molecular Devices, Sunnyvale, Calif.). Results (fold changes compared to CRTL) are representative of the mean±SEM of three independent experiments in triplicate.
(§7) Four hours prior to evaluation, 20 μL of MTS labelling reagent ([3-(4,5-dimethylthiazol-2-yl)-5-(3-carboxymethoxyphenyl)-2-(4-sulfophenyl)-2H-tetrazolium, MTS supplemented with phenazine methosulfate, PMS, Promega, Madison, Wis.) was added to each well. The results were quantified using a VersaMax Elisa Microplate Reader at a wavelength of 490 nm and SoftMax®Pro software (Molecular Devices, Sunnyvale, Calif.). Results (Fold changes compared to CRTL) are representative of the mean±SEM of three independent experiments in triplicate.

[1] = tested on: MOLM14 (heterozygote for FLT3-ITD); experiment: Colony forming (methylcellulose clonogenic) assay in MOLM14; format: cell-based, Human
Method: (§1) Decitabine (DAC, 21.9 mM in DMSO, Sigma-Aldrich) was further diluted in water just before treatment of the cells with 5 nM, 10 nM or 20 nM of DAC. […] DAC was added every 24 hours for 72 hours with daily medium change, then the drug was washed out and cells were allowed to recover for 4 days (unless indicated otherwise) before further use. At day 7, cells were counted with trypan blue, treated with PARPi's, set in culture in 100 mm plates at a density of 0.2×10^6 cells/mL or in methylcellulose for colony forming assay as described later. At days indicated on the figures, 5- to 10×10^6 viable cells (trypan blue exclusion) were recovered, fast frozen and stored at −80° C. for further use for protein extraction.
(§2) Colony forming assay: At Day 7 of the experiment, equal numbers of viable cells (KASUMI-1 cells, 10000 cells/dish; MV411, 5000 cells/dish; MOLM14, 1000 cells/dish; Patients #16, 2000 cells/dish, #9, #13 and #15, 5000 cells/dish, #29, 10000 cells/dish, #30, 20000 cells/dish and #34, 40000 cells/dish) were treated as described earlier and plated in triplicate in 33 mm dish on MethoCult H4435 Enriched (StemCell Technologies, Vancouver, British Columbia, Canada) for MNC, or Methylcellulose Stock Solution (R&D Systems, Minneapolis, Minn.) supplemented with culture media for cell lines according to the instructions of the manufacturer. Ten to nineteen days later, colonies were stained with 2-(4-iodophenyl)-3-(4-nitrophenyl)-5-phenlytetrazolium chloride (1 mg/mL) overnight at 37° C. and colonies containing more than 40 cells were quantified using a colony counter and Protocol3 software (Synbiosis, Frederick, Md.).
(§3) In order to study if the DAC dependent reprogramming (Tsai et al., 2012) could sensitize AML cells to PARPi's, KASUMI-1, MOLM14 and MV411 cells were first treated with increased doses of DAC (5 nM-20 nM) for three days with daily replacement of drugs and media as described previously (Tsai et al., 2012). […]

[2] = tested on: MV411 (homozygote for FLT3-ITD); experiment: Colony forming (methylcellulose clonogenic) assay in MV411; format: cell-based, Human
Method: as §1, §2, §3

MV411 = experiment: cells; conditions: Homo sapiens, MV4-11, 72 h
Method: as §6, §7

γH2AX foci = γH2AX foci immunofluorescence in MV411; format: cell-based, Human
Method: Immunofluorescence: AML cells (0.2×10^6 cells) were cytospun onto glass slides for 5 min at 200 rpm in PBS 1× on a Shandon Cytospin 4. Cells were then fixed for 30 min in 4% paraformaldehyde, washed 3 times in DPBS (+CaCl2 and MgCl2, DPBS++), permeabilized for 10 min in permeabilization solution (50 mM NaCl, 3 mM MgCl2, 10 mM HEPES, 200 mM Sucrose and 0.5% Triton X-100 in PBS 1×), washed 3 times in DPBS (+CaCl2, +MgCl2) supplemented with BSA 1% (DPBS-BSA) and then blocked overnight in DPBS++ supplemented with 10% serum. After incubation with mouse monoclonal anti-γH2A.x (1:100, Upstate), rabbit polyclonal anti-RAD51 (1:100, Santa Cruz Biotechnologies, Dallas, Tex.), rabbit Poly-ADP-ribose (PAR, 1:200, Axxora, Farmingdale, N.Y.), or isotypes controls for an hour at 37° C. in DPBS-BSA, cells were washed and then incubated with Dylight 594-anti-mouse and Dylight 488-anti rabbit (1:200, KPL, Gaithersburg, Md.) for an hour at 37° C. prior to counterstaining with 4′,6 diamidino-2-phenylindole, dihydrochloride (DAPI, 0.3 μg/mL, Promega, Madison, Wis.) in mounting media (Vectashield, Vector Laboratories, Burlingame, Calif.). Slides were examined using a Nikon fluorescent microscope Eclipse 80i (100×/1.4 oil, Melville, N.Y.). Images of at least 50 cells/slide were captured using a CCD (charge-coupled device) camera and the imaging software NIS Elements (BR 3.00, Nikon).

[3] = tested on: cancer cell lines derived from leukemia, breast, ovarian, and lung; experiment: Methylcellulose colony assay in multiple cancer cell lines; format: cell-based
Method: (§4) Multiple cancer cell lines derived from leukemia, breast, ovarian, and lung were treated with low dose DAC/5-AZA (10 nM and 5 nM) for 3 days, followed by removal of the drug for 4 days to 7 days, and subsequent plating of cells in methylcellulose to follow self-renewal capability in the presence or absence of the PARP inhibitor ABT888 (500 nM).

PARP1 = biological target: T1, PARP1 (Homo sapiens, UniProt P09874); experiment: PARP1 trapping in chromatin, Western blot of chromatin extracts of X-irradiated AML cells; format: cell-based; conditions: MV411, ABT888 5 μM alone, 4Gy X-ray, FIG. 15E
T1 construct: chromatin extracts from cells X-irradiated (4Gy) to induce DSBs were examined; endogenous in cells; host or cells: MV411 and MOLM14 AML cells
T1 sequence (P09874 whole entry): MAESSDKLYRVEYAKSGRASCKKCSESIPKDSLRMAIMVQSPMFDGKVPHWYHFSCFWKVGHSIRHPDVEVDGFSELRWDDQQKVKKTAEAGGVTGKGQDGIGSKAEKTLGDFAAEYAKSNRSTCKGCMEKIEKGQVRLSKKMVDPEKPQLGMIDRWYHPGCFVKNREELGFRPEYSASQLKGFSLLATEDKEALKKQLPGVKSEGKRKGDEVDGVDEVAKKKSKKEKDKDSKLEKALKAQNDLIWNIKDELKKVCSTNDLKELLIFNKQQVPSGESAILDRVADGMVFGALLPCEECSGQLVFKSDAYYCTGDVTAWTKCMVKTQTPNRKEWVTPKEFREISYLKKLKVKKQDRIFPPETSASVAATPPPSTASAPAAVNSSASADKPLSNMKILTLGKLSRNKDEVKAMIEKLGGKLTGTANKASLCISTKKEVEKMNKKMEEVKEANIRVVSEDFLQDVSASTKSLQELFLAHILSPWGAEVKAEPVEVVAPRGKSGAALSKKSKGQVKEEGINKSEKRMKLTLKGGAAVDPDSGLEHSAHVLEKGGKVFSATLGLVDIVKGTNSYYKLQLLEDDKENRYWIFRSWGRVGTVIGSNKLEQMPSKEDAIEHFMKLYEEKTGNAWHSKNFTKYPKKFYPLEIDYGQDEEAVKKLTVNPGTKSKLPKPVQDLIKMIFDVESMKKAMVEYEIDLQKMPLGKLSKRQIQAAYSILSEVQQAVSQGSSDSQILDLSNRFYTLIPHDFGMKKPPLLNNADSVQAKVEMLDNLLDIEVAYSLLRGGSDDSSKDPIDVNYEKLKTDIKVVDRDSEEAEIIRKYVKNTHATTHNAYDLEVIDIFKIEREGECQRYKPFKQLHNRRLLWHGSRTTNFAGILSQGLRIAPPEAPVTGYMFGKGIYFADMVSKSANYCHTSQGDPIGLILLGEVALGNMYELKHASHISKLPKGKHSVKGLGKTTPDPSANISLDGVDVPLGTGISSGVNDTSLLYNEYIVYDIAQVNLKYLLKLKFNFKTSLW
Source text: Irradiation: For irradiation (IR) studies, cells were exposed to 4Gy X-Ray radiation using a Pantak HF320 X-Ray machine (250 kV peak, 13 mA; half-value layer, 1.65 mm copper) at a dose rate of 2.4 Gy/min. After IR, cells were allowed to recover from DNA damage for 4 hrs before extraction of protein.
Subcellular fractionation: To isolate the chromatin bound fraction (CH) and soluble nuclear fraction (NUC), a Subcellular Protein Fractionation kit (Thermo Fisher Scientific, Waltham, Mass.) was used by following the instructions of the manufacturer.
Immunoblotting: Immunoblotting was performed following standard procedures using 5 μg of NUC and CH fractions. Proteins were loaded onto a 4%-20% SDS-PAGE gel (Bio-Rad laboratories, Hercules, Calif.), transferred on PVDF membrane (GE Healthcare Life Sciences, Pittsburgh, Pa.) and blots were washed in Tris Buffered Saline-0.1% Tween 20 (TBST) three times, blocked in TBST-5% bovine serum albumin (TBST-BSA) for an hour at least and first antibodies in TBST-BSA were applied overnight at 4° C. on shaker. […]

[4] = tested on: KASUMI-1 (AML1-ETO positive); experiment: Colony forming (methylcellulose clonogenic) assay in KASUMI-1; format: cell-based, Human; conditions: ABT888 500 nM, single agent
Method: as §1, with “extraction. […]” for “extraction.”
In order to study if the DAC dependent reprogramming (Tsai et al., 2012) could sensitize AML cells to PARPi's, KASUMI-1, MOLM14 and MV411 cells were first treated with increased doses of DAC (5 nM-20 nM) for three days with daily replacement of drugs and media as described previously (Tsai et al., 2012). […] Ten days later, clonogenic efficiency was measured by counting colonies with more than 40 cells and results were expressed as fold changes compared to controls (CRTL) (FIG. 2).

PARP = conditions: treatment alone
[5] = tested on: mononuclear cells (MNC) from AML patients; experiment: Colony forming assay in primary cells from AML patients; format: cell-based, Human; conditions: ABT888 500 nM alone; 3 of 6 patients (#15, #29, #16)
HCC1937 = experiment: Clonogenicity of breast cancer cells HCC1937; format: cell-based; conditions: 5AZA alone
Method: (§5) There were 7 days of recovery between the DNMTi and PARPi treatment;
as §4

OVCAR3 = experiment: Clonogenicity of ovarian cancer cells OVCAR3; format: cell-based; conditions: 5AZA alone
Method: as §5, §4

MCF7 = experiment: Clonogenicity of breast cancer cells MCF7; format: cell-based; conditions: 5AZA alone
Method: as §5, §4

MDA MB231 = experiment: Clonogenicity of breast cancer cells MDA MB231; format: cell-based; conditions: 5AZA alone
Method: as §5, §4

A2780 = experiment: Clonogenicity of ovarian cancer cells A2780; format: cell-based; conditions: 5AZA alone
Method: as §5, §4

[6] = BMN673 between 10 nM and 100 nM

Structure (SMILES): Cn1ncnc1[C@H]1c2n[nH]c(=O)c3cc(F)cc(c23)N[C@@H]1c1ccc(F)cc1 [BMN673]
- colony survival of normal bone marrow (normal bone marrow (NBM)): not affected
- IC50 (MOLM14): 4.46 µM
- sensitivity in clonogenic assay ([1]; BMN673 1 nM): cytotoxity occurring
- colony formation [1, 6]: profoundly inhibited colony formation
- sensitivity in clonogenic assay ([2]; BMN673 1 nM): barely sensitive
- colony formation [2, 6]: profoundly inhibited colony formation
- IC50 (MV411): 6.45 µM
- γH2AX foci (γH2AX foci; MV411, BMN673 10 nM alone): an increase in foci

Structure (SMILES): C[C@]1(c2nc3c(C(N)=O)cccc3[nH]2)CCCN1 [ABT888, Veliparib]
- IC50 (MOLM14): > 25 µM
- colony number vs CRTL ([1]; ABT888 500 nM, single agent): significant reduction of colony numbers
- colony numbers ([3]; ABT888 500 nM alone): has an effect in some cases
- PARP trapping into chromatin (PARP1): traps PARP into chromatin
- colony number vs CRTL ([2]; ABT888 500 nM, single agent): significant reduction of colony numbers
- colony number vs CRTL [4]: not significantly affected
- PARP activity (PARP): decreases PARP activity
- IC50 (MV411): > 25 µM
- responders: patients with decreased colony number [5]: 50%
- γH2AX foci (γH2AX foci; MV411, ABT888 5 μM alone): an increase in foci

Structure (SMILES): Nc1ncn([C@@H]2O[C@H](CO)[C@@H](O)[C@H]2O)c(=O)n1 [5AZA, 5-azacitidine]
- clonogenicity (HCC1937): decreased
- clonogenicity (OVCAR3): decreased
- colony numbers ([3]; DAC/5-AZA (10 nM and 5 nM) for 3 days alone): significant decrease in colony numbers
- clonogenicity (MCF7): decreased
- clonogenicity (MDA MB231): decreased
- PARP activity (PARP): decreases PARP activity
- clonogenicity (A2780): decreased
